Experimental data published in US12660819B2, “Herbicidal derivatives” (SYNGENTA CROP PROTECTION AG, priority 2020, dated 2026).

Columns and labels:
Assay type in all cases: in vivo
[1] = tested on: Ipomoea hederacea (IPOHE); assay: Pre-emergence Test (glasshouse, percentage damage to the plant); conditions: 1000 g/ha unless otherwise stated, five-point scale
Zea mays (ZEAMX) [2] = assay: Post-emergence Test (glasshouse, percentage damage to the plant); conditions: post-emergence spray, 1000 g/ha unless otherwise stated, evaluated after 13 days
In short: (§1)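 Seeds sown in standard soil in a glasshouse (24/16 °C day/night, 14 h light, 65% humidity), then sprayed with an aqueous solution of the compound formulated in acetone/water 50:50 with 0.5% Tween 20 at 1000 g/ha unless otherwise stated. Percentage damage was scored after 13 days on a five-point scale (5=81-100%; 1=0-20%).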

Setaria faberi (SETFA) [3] = assay: as above; conditions: post-emergence spray, 1000 g/ha unless otherwise stated, evaluated after 13 days
In short: as §1

[4] = tested on: Echinochloa crus-galli (ECHCG); assay: as above; conditions: post-emergence spray, 1000 g/ha unless otherwise stated, evaluated after 13 days
In short: (§2)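 Scored 13 days after spraying as percentage plant damage in five bands (5=81–100%, 4=61–80%, 3=41–60%, 2=21–40%, 1=0–20%). Spray at 1000 g/ha unless stated, in acetone/water 50:50 plus 0.5% Tween 20, onto sown glasshouse pots (24/16 °C, 14 h light, 65% humidity).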

[5] = tested on: Ipomoea hederacea (IPOHE); assay: as above; conditions: post-emergence spray, 1000 g/ha unless otherwise stated, evaluated after 13 days
In short: as §1

[6] = tested on: Amaranthus retoflexus (AMARE); assay: as above; conditions: post-emergence spray, 1000 g/ha unless otherwise stated, evaluated after 13 days
In short: as §2

[7] = tested on: Abutilon theophrasti (ABUTH); assay: as above; conditions: post-emergence spray, 1000 g/ha unless otherwise stated, evaluated after 13 days
In short: as §2

Setaria faberi (SETFA) [8] = assay: Pre-emergence Test (glasshouse, percentage damage to the plant); conditions: 1000 g/ha unless otherwise stated, five-point scale
[9] = tested on: Amaranthus retoflexus (AMARE); assay: as above; conditions: 1000 g/ha unless otherwise stated, five-point scale
Zea mays (ZEAMX) [10] = assay: as above; conditions: 1000 g/ha unless otherwise stated, five-point scale
[11] = tested on: Abutilon theophrasti (ABUTH); assay: as above; conditions: 1000 g/ha unless otherwise stated, five-point scale
[12] = tested on: Echinochloa crus-galli (ECHCG); assay: as above; conditions: 1000 g/ha unless otherwise stated, five-point scale

Row | Structure (SMILES) | percentage damage to the plant, IPOHE [1] | Post-emergence Test ZEAMX, percentage damage to the plant (five-point scale) (Zea mays (ZEAMX) [2]) | Post-emergence Test SETFA, percentage damage to the plant (five-point scale) (Setaria faberi (SETFA) [3]) | Post-emergence Test ECHCG, percentage damage to the plant (five-point scale) [4] | Post-emergence Test IPOHE, percentage damage to the plant (five-point scale) [5] | Post-emergence Test AMARE, percentage damage to the plant (five-point scale) [6] | Post-emergence Test ABUTH, percentage damage to the plant (five-point scale) [7] | percentage damage to the plant, SETFA (Setaria faberi (SETFA) [8]) | percentage damage to the plant, AMARE [9] | percentage damage to the plant, ZEAMX (Zea mays (ZEAMX) [10]) | percentage damage to the plant, ABUTH [11] | percentage damage to the plant, ECHCG [12]
1 | CCOc1cc(-c2c(C)n(CC)c(-c3ccc(Cl)c(Cl)c3)c(C(=O)O)c2=O)cc(C(F)(F)F)c1 [Compound 88, 2-(3,4-dichlorophenyl)-5-[3-ethoxy-5-(trifluoromethyl)phenyl]-1-ethyl-6-methyl-4-oxo-pyridine-3-carboxylic acid] | 1 (1=0-20%) | 1 (1=0-20%) | 2 (2=21-40%) | 2 (2=21-40%) | 1 (1=0-20%) | 2 (2=21-40%) | 2 (2=21-40%) | 4 (4=61-80%) | 1 (1=0-20%) | 1 (1=0-20%) | 1 (1=0-20%) | 1 (1=0-20%)
2 | CCn1c(C)c(-c2cccs2)c(=O)c(C(=O)O)c1-c1ccc(Cl)c(Cl)c1 [Compound 74, 2-(3,4-dichlorophenyl)-1-ethyl-6-methyl-4-oxo-5-(2-thienyl)pyridine-3-carboxylic acid] | 1 (1=0-20%) | 2 (2=21-40%) | 3 (3=41-60%) | 3 (3=41-60%) | 2 (2=21-40%) | 1 (1=0-20%) | 3 (3=41-60%) | 4 (4=61-80%) | 1 (1=0-20%) | 1 (1=0-20%) | 2 (2=21-40%) | 3 (3=41-60%)
3 | CCn1c(C)c(-c2ccc(F)cc2C)c(=O)c(C(=O)O)c1-c1ccc(Cl)c(Cl)c1 [Compound 155, 2-(3,4-dichlorophenyl)-1-ethyl-5-(4-fluoro-2-methyl-phenyl)-6-methyl-4-oxo-pyridine-3-carboxylic acid] | 1 (1=0-20%) | 4 (4=61-80%) | 4 (4=61-80%) | 4 (4=61-80%) | 4 (4=61-80%) | 3 (3=41-60%) | 4 (4=61-80%) | 5 (5=81-100%) | 1 (1=0-20%) | 1 (1=0-20%) | 2 (2=21-40%) | 5 (5=81-100%)
4 | CCn1c(C)c(-c2ccc(OC)c(C(F)(F)F)c2)c(=O)c(C(=O)O)c1-c1ccc(Cl)c(Cl)c1 [Compound 81, 2-(3,4-dichlorophenyl)-1-ethyl-5-[4-methoxy-3-(trifluoromethyl)phenyl]-6-methyl-4-oxo-pyridine-3-carboxylic acid] | 1 (1=0-20%) | 1 (1=0-20%) | 3 (3=41-60%) | 3 (3=41-60%) | 2 (2=21-40%) | 2 (2=21-40%) | 3 (3=41-60%) | 4 (4=61-80%) | 1 (1=0-20%) | 1 (1=0-20%) | 1 (1=0-20%) | 1 (1=0-20%)
5 | CCn1c(C)c(-c2ccc(Cl)c(C(=O)NC3CC3)c2)c(=O)c(C(=O)O)c1-c1ccc(Cl)c(Cl)c1 [Compound 83, 5-[4-chloro-3-(cyclopropylcarbamoyl)phenyl]-2-(3,4-dichlorophenyl)-1-ethyl-6-methyl-4-oxo-pyridine-3-carboxylic acid] | 1 (1=0-20%) | 1 (1=0-20%) | 2 (2=21-40%) | 1 (1=0-20%) | 1 (1=0-20%) | 1 (1=0-20%) | 2 (2=21-40%) | 1 (1=0-20%) | 1 (1=0-20%) | 1 (1=0-20%) | 1 (1=0-20%) | 1 (1=0-20%)
6 | CCn1c(C)c(-c2ccc(C(F)(F)F)cc2)c(=O)c(C(=O)O)c1-c1ccc(Cl)c(Cl)n1 [Compound 151, 2-(5,6-dichloro-2-pyridyl)-1-ethyl-6-methyl-4-oxo-5-[4-(trifluoromethyl)phenyl] pyridine-3-carboxylic acid] | 5 (5=81-100%) | 2 (2=21-40%) | 4 (4=61-80%) | 3 (3=41-60%) | 3 (3=41-60%) | 0 | 3 (3=41-60%) | 4 (4=61-80%) | 1 (1=0-20%) | 2 (2=21-40%) | 1 (1=0-20%) | 4 (4=61-80%)
7 | CCOC(=O)c1c(-c2ccc(F)c(F)c2)n(CC)c(C)c(-c2ccc(Cl)cc2)c1=O [Compound 152, ethyl 5-(4-chlorophenyl)-2-(3,4-difluorophenyl)-1-ethyl-6-methyl-4-oxo-pyridine-3-carboxylate] | 0 | 0 | 0 | 0 | 0 | 0 | 0 | 0 | 0 | 0 | 0 | 0
8 | CCc1ccc(-c2c(C)n(CC)c(-c3ccc(Cl)c(Cl)c3)c(C(=O)O)c2=O)cc1 [Compound 89, 2-(3,4-dichlorophenyl)-1-ethyl-5-(4-ethylphenyl)-6-methyl-4-oxo-pyridine-3-carboxylic acid] | 1 (1=0-20%) | 1 (1=0-20%) | 1 (1=0-20%) | 1 (1=0-20%) | 3 (3=41-60%) | 1 (1=0-20%) | 3 (3=41-60%) | 4 (4=61-80%) | 1 (1=0-20%) | 1 (1=0-20%) | 1 (1=0-20%) | 1 (1=0-20%)
9 | CCn1c(C)c(-c2cccc(Cl)c2)c(=O)c(C(=O)O)c1-c1ccnc(Cl)c1 [Compound 144, 5-(3-chlorophenyl)-2-(2-chloro-4-pyridyl)-1-ethyl-6-methyl-4-oxo-pyridine-3-carboxylic acid] | 2 (2=21-40%) | 2 (2=21-40%) | 3 (3=41-60%) | 2 (2=21-40%) | 2 (2=21-40%) | 2 (2=21-40%) | 2 (2=21-40%) | 4 (4=61-80%) | 1 (1=0-20%) | 2 (2=21-40%) | 1 (1=0-20%) | 4 (4=61-80%)
